The values that follow come from patent US10034886B2, “GLP-1 receptor modulators” (Celgene International II SÀRL, priority 2014, dated 2018).

The target of this assay is T1, GLP-1R (Homo sapiens, UniProt P43220).
T1 construct: host or cells: GLP-1R CRE-bla CHO-K1 cells
In words: EC20 GLP-1(9-36) PAM cAMP assay: dose response of compound in the presence of fixed concentration of GLP-1(9-36). The assay is classed as cell-based. The conditions noted are these: GLP-1R CRE-bla CHO-K1 cells, read-out: EC20 GLP-1(9-36) PAM EC50. On the procedure: EC20 GLP-1(9-36) PAM cAMP Assay: Dose Response of Compound in the Presence of Fixed Concentration of GLP-1 (9-36).
GLP-1R CRE-bla CHO-K1 cells cultured in growth medium (DMEM-High glucose, 10% dialyzed FBS, 0.1 mM NEAA, 25 mM Hepes, 100 U/mL penicillin/100 μg/mL streptomycin, 5 μg/mL Blasticidin, 600 μg/mL Hygromycin) were trypsinized and plated in suspension into 384 well white flat bottom plates at 5000 cells/well in 12 μL assay buffer (Hanks Balanced Salt solution, 10 mM hepes, 0.1% BSA, pH 7.4). A 5× compound dose response curve (12-point) was generated in assay buffer containing 1.5 mM IBMX, 4% DMSO. GLP-1(9-36) was diluted to 4.2 μM in assay buffer containing 1.5 mM IMBX and 4% DMSO. The 5× compound dose response was added (3 μL), followed by 0.5 μL of GLP-1(9-36) and cells were incubated for 30 min at 37° C. Direct detection of cAMP was carried out using DiscoveRx HitHunter cAMP kit according to manufacturer's instructions and luminescence was read using a SpectraMax M5 plate reader. Luminescence was converted to total cAMP using a cAMP standard curve and data was analyzed by non-linear regression to determine the EC50 and Emax.
GLP-1(7-36): […]-NH2 (SEQ ID NO: 2). GLP-1(9-36): […]-NH2 (SEQ ID NO: 3). GLP-1(7-36) was purchased from GenScript. GLP-1(9-36) was purchased from Biopeptide Co., Inc.
The EC20GLP-1(9-36) PAM Activity range is denoted as follows: + denotes activity <0.8 μM, ++ denotes activity between 0.8 and 2.5 μM, +++ denotes activity between 2.5 and 5 μM, and ++++ denotes activity 5 to 10 μM.
In general terms: Cyclic AMP is a second messenger, typically raised through Gs and lowered through Gi signalling.

Where [1] appears, read: compound dose response with fixed concentration of GLP-1(9-36).
The mark [2] stands for this setting: dose response of compound in presence of fixed concentration of GLP-1(9-36).

SMILES strings stand for the structures. Read-outs that look alike come from different tables or passages of the source.

T1 sequence (P43220 24-463): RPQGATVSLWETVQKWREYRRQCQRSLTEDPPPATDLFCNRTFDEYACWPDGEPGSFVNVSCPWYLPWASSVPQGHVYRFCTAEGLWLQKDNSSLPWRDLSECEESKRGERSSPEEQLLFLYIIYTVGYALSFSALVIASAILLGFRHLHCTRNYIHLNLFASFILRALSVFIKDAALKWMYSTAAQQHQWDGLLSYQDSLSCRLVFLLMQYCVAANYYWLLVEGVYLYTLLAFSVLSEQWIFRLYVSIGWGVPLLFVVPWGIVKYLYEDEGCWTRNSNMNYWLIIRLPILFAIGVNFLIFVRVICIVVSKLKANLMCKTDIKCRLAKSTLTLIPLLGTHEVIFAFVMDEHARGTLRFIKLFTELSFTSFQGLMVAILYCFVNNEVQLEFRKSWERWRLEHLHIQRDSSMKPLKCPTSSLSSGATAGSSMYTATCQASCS
T1 sequence (P01275 100-127 partner limits assumed): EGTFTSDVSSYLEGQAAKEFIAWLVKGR

For `CC(C)(C)c1ccc(C(=O)N[C@@H](Cc2ccc(-c3ncc(-c4ccc(C5CCCCC5)cc4)cn3)cc2)C(=O)O)s1` [Compound 1345], the concentration for a half-maximal effect (EC50) (usually the concentration needed to bring the measured effect to its halfway point) under setting [1] is 800 to 2500 nM.
For the compound `CC(=O)c1ccccc1-c1ccc(-c2cnc(-c3ccc(C[C@H](NC(=O)c4ccc(C(C)(C)C)s4)C(=O)N4CC(C(=O)O)C4)cc3)nc2)c(F)c1` [Compound 1197], the half-maximal effective concentration (EC50) under setting [2] lay in the range of 800 to 2500 nM.
Consider `CCC[C@H]1CC[C@H](C2CCN(c3cnc(-c4ccc(CC(NC(=O)c5ccc(C(C)(C)C)s5)C(=O)NS(=O)(=O)CC)cc4)nc3)CC2)CC1` (stereo partly drawn) [Compound 1539], for which the concentration for a half-maximal effect (EC50) under setting [1] was 2500 to 5000 nM.
Consider `CCCCCCCOc1ccc(-c2cnc(-c3ccc(C[C@H](NC(=O)c4ccc(C(C)(C)C)s4)C(=O)NC(C(=O)O)C(O)c4ncccn4)cc3)nc2)cc1` (stereo partly drawn) [Compound 913], for which the EC50 under setting [2] was < 800 nM.
Regarding `CCCCCCCOc1ccc(-c2cnc(-c3ccc(C[C@H](NC(=O)c4ccc(C(C)(C)C)cc4)C(=O)NC(C(=O)O)c4ccco4)cc3)nc2)cc1` (stereo partly drawn) [Compound 440], the concentration for a half-maximal effect (EC50) under setting [2] is < 800 nM.
For `CC[C@H]1CC[C@H](c2ccc(-c3cnc(-c4ccc(C[C@H](NC(=O)c5ccc(OC(C)C)cc5)C(=O)N5CC(C(=O)O)C5)cc4)nc3)cc2)CC1` [Compound 1160], the concentration for a half-maximal effect (EC50) under setting [2] is < 800 nM.
Take `CCCCCCCc1noc(-c2cnc(-c3ccc(C[C@H](NC(=O)c4ccc(C(C)(C)C)cc4)C(=O)NCCC(=O)O)cc3)nc2)n1` [Compound 754]: under setting [2], the EC50 is 5000 to 10000 nM.
With `CCCCCCCOc1ccc(-c2cnc(-c3ccc(C[C@H](NC(=O)c4ccc(C(C)(C)C)s4)C(=O)N[C@H](C(=O)O)[C@@H](O)c4ccccc4)cc3)nc2)cc1` [Compound 665], the EC50 under setting [2] fell in the range of 800 to 2500 nM.
Take `CCCCCCCOc1ccc(-c2cnc(-c3ccc(C[C@H](NC(=O)c4ccc(C(C)(C)C)s4)C(=O)N4C5CCC4C(C(=O)O)C5)cc3)nc2)cc1` (stereo partly drawn) [Compound 1049]: under setting [2], the EC50 is 800 to 2500 nM.
Regarding `CCCCCOc1ccc(-c2cnc(-c3ccc(C[C@H](NC(=O)c4ccc(C(C)(C)C)s4)C(=O)N4CC[C@H](C(=O)O)C4)cc3)nc2)cc1` [Compound 762], the EC50 under setting [2] lay within 5000 to 10000 nM.
Turning to `CCCCCCCOc1ccc(-c2cnc(-c3ccc(C[C@H](NC(=O)c4ccc(C(C)(C)C)s4)C(=O)N4CCCNCC4)cc3)nc2)cc1` [Compound 966], the concentration giving a half-maximal response (EC50) under setting [2] was 5000 to 10000 nM.
With `CCCCCCCOc1ccc(-c2cnc(-c3ccc(C[C@H](NC(=O)c4ccc(C(C)(C)C)s4)C(=O)N[C@@H](C(=O)O)[C@H](O)c4ccccc4)cc3)nc2)cc1` [Compound 666, (2R,3R)-2-((S)-2-(5-(tert-butyl)thiophene-2-carboxamido)-3-(4-(5-(4-(heptyloxy)phenyl)-pyrimidin-2-yl)phenyl)propanamido)-3-hydroxy-3-phenylpropanoic acid], the concentration giving a half-maximal response (EC50) under setting [2] fell in the range of 800 to 2500 nM.
As to `CC[C@H]1CC[C@H](c2ccc(-c3cnc(-c4ccc(C[C@H](NC(=O)c5ccc(C(C)(C)C)s5)C(=O)O)cc4)nc3)c(F)c2)CC1` [Compound 1363], under setting [1], the EC50 is < 800 nM.
On to `CCCCCCCOc1ccc(-c2cnc(-c3ccc(C[C@H](NC(=O)c4cccc(C(C)(C)C)c4)C(=O)N4CC(C(=O)O)C4)cc3)nc2)cc1` [Compound 1122], for which the EC50 under setting [2] lay in the range of 5000 to 10000 nM.
For the compound `C=C(N[C@H](Cc1ccccc1)C(=O)O)[C@H](Cc1ccc(-c2ncc(N3CCC([C@H]4CC[C@H](CCC)CC4)CC3)cn2)cc1)NC(=O)c1ccc(C(C)(C)C)s1` [Compound 1464], the concentration for a half-maximal effect (EC50) under setting [1] is < 800 nM.
Turning to `CCCCCCCOc1ccc(-c2cnc(-c3ccc(C[C@H](NC(=O)c4ccc(C(C)(C)C)cc4)C(=O)NC(Cn4cncn4)C(=O)O)cc3)nc2)cc1` (stereo partly drawn) [Compound 467, 2-((S)-2-(4-(tert-butyl)benzamido)-3-(4-(5-(4-(heptyloxy)phenyl)pyrimidin-2-yl)phenyl)propanamido)-3-(1H-1,2,4-triazol-1-yl)propanoic acid], the EC50 under setting [2] was < 800 nM.
Turning to `CC[C@H]1CC[C@H](c2ccc(-c3cnc(-c4ccc(C[C@H](NC(=O)c5ccc(OC(C)C)cc5)C(=O)O)cc4)nc3)cc2)CC1` [Compound 1382], the EC50 under setting [1] lay within 800 to 2500 nM.
Still for that read-out and setting: the value for `CCC[C@H]1CC[C@H](C2CCN(c3cnc(-c4ccc(C[C@H](NC(=O)c5ccc(CC(C)C)s5)C(=O)N5CC(C(=O)O)C5)cc4)nc3)CC2)CC1` [Compound 1522] was < 800 nM; that for `C[C@@H](NC(=O)[C@H](Cc1ccc(-c2ncc(-c3ccc(-c4ccc(F)cc4)cc3)cn2)cc1)NC(=O)c1ccc(C(C)(C)C)s1)C(=O)O` [Compound 1305] was < 800 nM.
Regarding `CCCc1ccc(C(=O)N[C@@H](Cc2ccc(-c3ncc(N4CCC([C@H]5CC[C@H](CCC)CC5)CC4)cn3)cc2)C(=O)N2CC(C(=O)O)C2)cc1` [Compound 1521], the concentration for a half-maximal effect (EC50) under setting [1] is < 800 nM.
Take `CCC[C@H]1CC[C@H](C2CCN(c3cnc(-c4ccc(C[C@H](NC(=O)c5ccc(C(C)(C)C#N)s5)C(=O)N5CC(C(=O)O)C5)cc4)nc3)CC2)CC1` [Compound 1513]: the EC50 under setting [1] was < 800 nM.
Consider `CCCCCCCOc1ccc(-c2cnc(-c3ccc(C[C@H](NC(=O)c4ccc(C(C)(C)C)s4)C(=O)NC(C(=O)O)C(O)c4ccc(S(C)(=O)=O)cc4)cc3)nc2)cc1` (stereo partly drawn) [Compound 655], for which the EC50 under setting [2] fell in the range of 800 to 2500 nM.
In the case of `CCSc1ccc(-c2cnc(-c3ccc(C[C@H](NC(=O)c4ccc(C(C)(C)C)s4)C(=O)N[C@H](C)C(=O)O)cc3)nc2)cc1` [Compound 998], the EC50 under setting [2] is 2500 to 5000 nM.
For the compound `COc1ccc(C2CCN(c3cnc(-c4ccc(CC(NC(=O)c5ccc(C(C)(C)C)s5)C(=O)N5CC(C(=O)O)C5)cc4)nc3)CC2)cc1` (stereo not drawn) [Compound 1489], the half-maximal effective concentration (EC50) under setting [1] was < 800 nM.
As for `CCCCCCCOc1ccc(-c2cnc(-c3ccc(C[C@H](NC(=O)c4ccc(OCCC)cc4)C(=O)N4CC(C(=O)O)C4)cc3)nc2)cc1` [Compound 1105], the EC50 under setting [2] lay within 2500 to 5000 nM.
In the case of `CCC[C@H]1CC[C@H](C2CCN(c3cnc(-c4ccc(C[C@H](NC(=O)c5ccc(C(C)(C)C)s5)C(=O)N5CC(OC)(C(=O)O)C5)cc4)nc3)CC2)CC1` [Compound 1452], under setting [1], the EC50 is < 800 nM.
Consider `CCCCCCCOc1ccc(-c2cnc(-c3ccc(C[C@H](NC(=O)c4ccc(C(C)(C)C)cc4)C(=O)N4CC=CC4C(=O)O)cc3)nc2)cc1` (stereo partly drawn) [Compound 563], for which the EC50 under setting [2] was < 800 nM.
In the case of `C[C@@H](NC(=O)[C@H](Cc1ccc(-c2ncc(-c3ccc(C4CCCC4)cc3)cn2)cc1)NC(=O)c1ccc(C(C)(C)C)s1)C(=O)O` [Compound 1046], the half-maximal effective concentration (EC50) under setting [2] fell in the range of 800 to 2500 nM.
For the compound `CCCCCCCOc1ccc(-c2cnc(-c3ccc(C[C@H](NC(=O)c4ccc(C(C)(C)C)s4)C(=O)N4CCCC45CNC5)cc3)nc2)cc1` [Compound 1048], the EC50 under setting [2] lay in the range of 2500 to 5000 nM.
With `CCCCCCCOc1ccc(-c2cnc(-c3ccc(C[C@H](NC(=O)c4ccc(C(C)(C)C)s4)C(=O)N[C@H](C(=O)O)[C@H](C)CC)cc3)nc2)cc1` [Compound 657], under setting [2], the concentration for a half-maximal effect (EC50) fell in the range of 800 to 2500 nM.
For `CCCCCCCOc1ccc(-c2cnc(-c3ccc(C[C@H](NC(=O)c4cc5cc(OC)ccc5[nH]4)C(=O)N[C@H](C)C(=O)O)cc3)nc2)cc1` [Compound 990], the EC50 under setting [2] was 2500 to 5000 nM.
Still for that read-out and setting: the value for `CCCOc1ccc(-c2cnc(-c3ccc(C[C@H](NC(=O)c4ccc(C(C)(C)C)s4)C(=O)N[C@H](C)C(=O)O)cc3)nc2)cc1` [Compound 732] was 800 to 2500 nM.
In the case of `CCOc1ccc(C2CCN(c3cnc(-c4ccc(CC(NC(=O)c5ccc(C(C)(C)C)s5)C(=O)N5CC(C(=O)O)C5)cc4)nc3)CC2)cc1` (stereo not drawn) [Compound 1490], the EC50 under setting [1] lay in the range of 800 to 2500 nM.
With `CCCCCCCOc1ccc(-c2cnc(-c3ccc(C[C@H](NC(=O)c4ccc(C(C)(C)C)cc4)C(=O)N[C@H](CC(=O)NC)C(=O)O)cc3)nc2)cc1` [Compound 591], under setting [2], the EC50 is < 800 nM.
In the case of `CC(C)(C)c1ccc(C(=O)N[C@@H](Cc2ccc(-c3ncc(-c4ccc(-c5ccccc5)cc4)cn3)cc2)C(=O)N2CC(C(=O)O)C2)s1` [Compound 1090], the EC50 under setting [2] was < 800 nM.
For `C[C@@H](NC(=O)[C@H](Cc1ccc(-c2ncc(-c3ccc(N4CCCC4)cc3)cn2)cc1)NC(=O)c1ccc(C(C)(C)C)s1)C(=O)O` [Compound 1300], the EC50 under setting [1] was 800 to 2500 nM.
For the compound `CC[C@H]1CC[C@H](c2ccc(-c3cnc(-c4ccc(C[C@H](NC(=O)c5ccc(C(C)(C)C)s5)C(=O)N5CCC[C@H]5C(=O)O)cc4)nc3)cc2)CC1` [Compound 1128, ((S)-2-(5-(tert-butyl)thiophene-2-carboxamido)-3-(4-(5-(4-((1r,4r)-4-ethylcyclohexyl)phenyl)pyrimidin-2-yl)phenyl)propanoyl)-L-proline], the half-maximal effective concentration (EC50) under setting [2] is < 800 nM.
On to `CCCCCCCOc1ccc(-c2cnc(-c3ccc(C[C@H](NC(=O)c4ccc(C(C)(C)C)s4)C(=O)NC(C(=O)O)C(O)c4cccnc4)cc3)nc2)cc1` (stereo partly drawn) [Compound 907], for which the EC50 under setting [2] was in the range of 800 to 2500 nM.
As to `CCCCCCCOc1ccc(-c2cnc(-c3ccc(C[C@H](NC(=O)c4ccc(C(C)(C)C)s4)C(=O)NCC4(O)CCN(C)C4)cc3)nc2)cc1` (stereo partly drawn) [Compound 894], the 50% effective concentration (EC50) under setting [2] was in the range of 5000 to 10000 nM.
